Patent US20220372014A1, “NEUROPROTECTIVE COMPOUNDS AND METHODS OF USE THEREOF” (The Johns Hopkins University, priority 2019, published 2022)

Key:
MIF = target: T1, MIF (Homo sapiens, UniProt P14174); test: Nuclease assay of Example 3 (MIF inhibitory activity, Table 4); assay type: biochemical; set-up: (%) inhibition of MIF nuclease activity: concentration or dose not given beside the values; conditions: for (%) inhibition of MIF nuclease activity: nuclease assay of Example 3
T1 sequence (P14174 1-115): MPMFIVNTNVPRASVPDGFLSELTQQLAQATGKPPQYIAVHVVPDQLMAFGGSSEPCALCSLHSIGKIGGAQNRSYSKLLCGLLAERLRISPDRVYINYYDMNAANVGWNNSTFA
Outline: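 Human genomic DNA (200 ng), pcDNA (200 ng) or PS^30-type substrates (1 μM) were incubated with MIF (0.25-8 μM final) in 10 mM Tris-HCl pH 7.0, 10 mM MgCl2, 1 mM DTT at 37 °C for 1 h (pcDNA, small substrates) or 4 h (genomic DNA). Cleavage was assessed by agarose or PAGE electrophoresis with EtBr staining and chemiluminescent detection of biotin-labelled DNA.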

[1] = tested on: HeLa cells or neuronal cells; test: Cell death assay of Example 3 (MNNG, alamarBlue; protection against parthanatos, Table 4); assay type: cell-based; conditions: 1 μM test compound; for (%) inhibition of cell death: MNNG-induced cell death, alamarBlue
Outline: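 HeLa or neuronal cells (1×10^4/well) were pretreated 1 h at 37° C with 1 μM compound, exposed to MNNG for 15 min, washed, then re-incubated 18 h with 1 μM compound. Viability was read by alamarBlue fluorescence (ex 560/em 590 nm). Cell death was expressed relative to control wells.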

SMILES | (%) inhibition of MIF nuclease activity (MIF) | (%) inhibition of cell death [1] | MIF nuclease activity (MIF) | protection against parthanatos (cell death) [1]
COc1ccc(CC[C@H]2OC(=O)[C@@H]3CCCCN3C(=O)C(=O)C(C)(C)COC(=O)C=CCCN(C)C(=O)[C@@H]3CCCN3C(=O)[C@H](COC(C)(C)C)N(C)C(=O)[C@H](COC(C)(C)C)NC(=O)[C@H](C)N(C)C(=O)COc3cccc2c3)cc1OC [compound 140] | 0.0% | 51.0% |  | 
COc1ccc(CC[C@H]2OC(=O)[C@@H]3CN(C)CCN3C(=O)C(=O)C(C)(C)COC(=O)C=CCCN(C)C(=O)[C@@H]3CCCN3C(=O)[C@H](COC(C)(C)C)N(C)C(=O)C(c3ccccc3)NC(=O)[C@H](C)N(C)C(=O)COc3cccc2c3)cc1OC (stereo partly drawn) [compound 118] | 9.0% | 50.8% |  | 
COc1cc(CC[C@H]2OC(=O)[C@@H]3CCCCN3C(=O)C(=O)C(C)(C)COC(=O)C=CCCN(C)C(=O)[C@@H]3CCCN3C(=O)[C@H](COC(C)(C)C)N(C)C(=O)C(c3ccccc3)NC(=O)[C@H](C)N(C)C(=O)COc3cccc2c3)c(OC)c(OC)c1 (stereo partly drawn) [compound 113] | 26.8% | 66.1% |  | 
COCC[C@@H]1NC(=O)[C@H](COC(C)(C)C)N(C)C(=O)[C@H](Cc2ccc3ccccc3c2)NC(=O)[C@H](C)N(C)C(=O)COc2cccc(c2)[C@@H](CCc2ccc(OC)c(OC)c2)OC(=O)[C@@H]2CCCCN2C(=O)C(=O)C(C)(C)COC(=O)C=CCCN(C)C1=O [compound 20] | 42.2% | 60.6% |  | 
COc1ccc(CC[C@H]2OC(=O)[C@@H]3CCCCN3C(=O)C(=O)C(C)(C)COC(=O)C=CCCN(C)C(=O)[C@@H]3CCCN3C(=O)[C@H](COC(C)(C)C)N(C)C(=O)C(c3ccccc3)NC(=O)[C@H](C)N(C)C(=O)COc3cccc2c3)cc1 (stereo partly drawn) [compound 151] | 6.8% | 45.7% |  | 
COc1ccc(CC[C@H]2OC(=O)[C@@H]3CCCCN3C(=O)C(=O)C(C)(C)COC(=O)C=CCCN(C)C(=O)[C@@H]3CCCCN3C(=O)[C@H](COC(C)(C)C)N(C)C(=O)C(c3ccccc3)NC(=O)[C@H](C)N(C)C(=O)COc3cccc2c3)cc1OC (stereo partly drawn) [compound 92] | 9.0% | 72.1% | do not inhibit MIF nuclease activity | protect against parthanatos
COc1ccc(CC[C@H]2OC(=O)[C@@H]3CCCCN3C(=O)C(=O)C(C)(C)COC(=O)C=CCCN(C)C(=O)[C@@H]3CCCN3C(=O)[C@H](COC(C)(C)C)N(C)C(=O)[C@H](Cc3ccccc3)NC(=O)[C@H](C)N(C)C(=O)COc3cccc2c3)cc1OC [compound 101] | 9.1% | 31.5% |  | 
CCC[C@@H]1NC(=O)[C@H](COC(C)(C)C)N(C)C(=O)C(c2ccccc2)NC(=O)CN(C)C(=O)COc2cccc(c2)[C@@H](CCc2ccc(OC)c(OC)c2)OC(=O)[C@@H]2CCCCN2C(=O)C(=O)C(C)(C)COC(=O)C=CCCN(C)C1=O (stereo partly drawn) [compound 34] | 24.2% | 58.4% |  | 
COc1ccc(CC[C@H]2OC(=O)[C@@H]3CCCCN3C(=O)C(=O)C(C)(C)COC(=O)C=CCCN(C)C(=O)[C@H](C(C)C)NC(=O)[C@H](Cc3ccccc3)N(C)C(=O)[C@@H](C)NC(=O)CN(C)C(=O)COc3cccc2c3)cc1OC [compound 74] | 31.5% | 52.6% |  | 
COc1ccc(CC[C@H]2OC(=O)[C@@H]3CCCCN3C(=O)C(=O)C(C)(C)COC(=O)C=CCCN(C)C(=O)[C@H](c3ccccc3)NC(=O)[C@H](COC(C)(C)C)N(C)C(=O)C(c3ccccc3)NC(=O)CN(C)C(=O)COc3cccc2c3)cc1OC (stereo partly drawn) [compound 45] | 15.4% | 51.9% |  | 
COc1ccc(CC[C@H]2OC(=O)[C@@H]3CCCCN3C(=O)C(=O)C(C)(C)COC(=O)C=CCCN(C)C(=O)[C@@H](Cc3ccccc3)NC(=O)[C@H](C(C)C)N(C)C(=O)[C@@H](Cc3ccccc3)NC(=O)[C@H](CC(C)C)N(C)C(=O)CCC(=O)Nc3cccc2c3)cc1OC [compound 84] | 10.8% | 51.0% |  | 
